Reference: patent EP0454444A1, “Glutarimide derivatives and herbicides” (NISSAN CHEMICAL INDUSTRIES LTD., priority 1990, dated 1991)

Legend:
Assay in all cases: Herbicidal effect test by soil treatment
Type in all cases: in vivo
soybean (Glysine max) = details: crop plant, three weeks after spraying
Procedure, shortened: (§1)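 Herbicide formulations, diluted with water, were applied across the soil surface right after sowing, with seeds lying roughly 1 cm deep in sterilized diluvial soil. Effects were judged at three weeks by comparing top fresh weights with untreated plants.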

[1] = system: annual sedge (Cyperus microiria); details: three weeks after spraying
Procedure, shortened: as §1

[2] = system: barnyardgrass (Echinochloa crusgalli); details: three weeks after spraying
Procedure, shortened: as §1

[3] = system: hairly galinosoga (Galinsoga ciliat); details: three weeks after spraying
Procedure, shortened: as §1

corn (Zea mays) = details: crop plant, three weeks after spraying
Procedure, shortened: as §1

[4] = system: cotton (Gossypium herbaceum); details: crop plant, three weeks after spraying
Procedure, shortened: as §1

rice (Oryza sativa) = details: crop plant, three weeks after spraying
Procedure, shortened: as §1

[5] = system: large crabgrass (Digitaria adscendens); details: three weeks after spraying
Procedure, shortened: as §1

[6] = system: wheat (Triticum aestivum); details: crop plant, three weeks after spraying
Procedure, shortened: as §1

[7] = system: rorippa ssp. (Rorippa atrovirens); details: three weeks after spraying
Procedure, shortened: as §1

[8] = system: black nightshade (Solanum nigrum L.); details: three weeks after spraying
Procedure, shortened: as §1

C#CCN1C(=O)COc2cc(F)c(N3C(=O)CC(C(F)(F)F)CC3=O)cc21 [1-26]
herbicidal effect, S (Glysine max) (soybean (Glysine max); application amount 0.4 g/a): 0 (Growth control rates of less than 5% (substantially no effect))
herbicidal effect, S (Glysine max) (soybean (Glysine max); application amount 0.8 g/a): 2 (Growth control rates of 20 to 40%)
herbicidal effect, S (Glysine max) (soybean (Glysine max); application amount 1.6 g/a): 4 (Growth control rates of 70 to 90%)
herbicidal effect, K (Cyperus microiria) ([1]; application amount 0.4 g/a): 5 (Growth control,rates of more than 90% (almost completely withered))
herbicidal effect, K (Cyperus microiria) ([1]; application amount 0.8 g/a): 5 (Growth control,rates of more than 90% (almost completely withered))
herbicidal effect, K (Cyperus microiria) ([1]; application amount 1.6 g/a): 5 (Growth control,rates of more than 90% (almost completely withered))
herbicidal effect, N (Echinochloa crusgalli) ([2]; application amount 0.4 g/a): 5 (Growth control,rates of more than 90% (almost completely withered))
herbicidal effect, N (Echinochloa crusgalli) ([2]; application amount 0.8 g/a): 5 (Growth control,rates of more than 90% (almost completely withered))
herbicidal effect, N (Echinochloa crusgalli) ([2]; application amount 1.6 g/a): 5 (Growth control,rates of more than 90% (almost completely withered))
herbicidal effect, D (Galinsoga ciliat) ([3]; application amount 0.4 g/a): 5 (Growth control,rates of more than 90% (almost completely withered))
herbicidal effect, D (Galinsoga ciliat) ([3]; application amount 0.8 g/a): 5 (Growth control,rates of more than 90% (almost completely withered))
herbicidal effect, D (Galinsoga ciliat) ([3]; application amount 1.6 g/a): 5 (Growth control,rates of more than 90% (almost completely withered))
herbicidal effect, T (Zea mays) (corn (Zea mays); application amount 0.4 g/a): 4 (Growth control rates of 70 to 90%)
herbicidal effect, T (Zea mays) (corn (Zea mays); application amount 0.8 g/a): 5 (Growth control,rates of more than 90% (almost completely withered))
herbicidal effect, T (Zea mays) (corn (Zea mays); application amount 1.6 g/a): 5 (Growth control,rates of more than 90% (almost completely withered))
herbicidal effect, C (Gossypium herbaceum) ([4]; application amount 0.4 g/a): 5 (Growth control,rates of more than 90% (almost completely withered))
herbicidal effect, C (Gossypium herbaceum) ([4]; application amount 0.8 g/a): 5 (Growth control,rates of more than 90% (almost completely withered))
herbicidal effect, C (Gossypium herbaceum) ([4]; application amount 1.6 g/a): 5 (Growth control,rates of more than 90% (almost completely withered))
herbicidal effect, R (Oryza sativa) (rice (Oryza sativa); application amount 0.4 g/a): 5 (Growth control,rates of more than 90% (almost completely withered))
herbicidal effect, R (Oryza sativa) (rice (Oryza sativa); application amount 0.8 g/a): 5 (Growth control,rates of more than 90% (almost completely withered))
herbicidal effect, R (Oryza sativa) (rice (Oryza sativa); application amount 1.6 g/a): 5 (Growth control,rates of more than 90% (almost completely withered))
herbicidal effect, M (Digitaria adscendens) ([5]; application amount 0.4 g/a): 5 (Growth control,rates of more than 90% (almost completely withered))
herbicidal effect, M (Digitaria adscendens) ([5]; application amount 0.8 g/a): 5 (Growth control,rates of more than 90% (almost completely withered))
herbicidal effect, M (Digitaria adscendens) ([5]; application amount 1.6 g/a): 5 (Growth control,rates of more than 90% (almost completely withered))
herbicidal effect, W (Triticum vulgare) ([6]; application amount 0.4 g/a): 4 (Growth control rates of 70 to 90%)
herbicidal effect, W (Triticum vulgare) ([6]; application amount 0.8 g/a): 5 (Growth control,rates of more than 90% (almost completely withered))
herbicidal effect, W (Triticum vulgare) ([6]; application amount 1.6 g/a): 5 (Growth control,rates of more than 90% (almost completely withered))
herbicidal effect, I (Rorippa indica) ([7]; application amount 0.4 g/a): 5 (Growth control,rates of more than 90% (almost completely withered))
herbicidal effect, I (Rorippa indica) ([7]; application amount 0.8 g/a): 5 (Growth control,rates of more than 90% (almost completely withered))
herbicidal effect, I (Rorippa indica) ([7]; application amount 1.6 g/a): 5 (Growth control,rates of more than 90% (almost completely withered))
herbicidal effect, H (Solanum nigrum L.) ([8]; application amount 0.4 g/a): 5 (Growth control,rates of more than 90% (almost completely withered))
herbicidal effect, H (Solanum nigrum L.) ([8]; application amount 0.8 g/a): 5 (Growth control,rates of more than 90% (almost completely withered))
herbicidal effect, H (Solanum nigrum L.) ([8]; application amount 1.6 g/a): 5 (Growth control,rates of more than 90% (almost completely withered))

O=C1COc2cc(F)c(N3C(=O)CC(C(F)(F)F)CC3=O)cc2N1Cc1ccccc1 [1-27]
herbicidal effect, S (Glysine max) (soybean (Glysine max); application amount 0.4 g/a): 0 (Growth control rates of less than 5% (substantially no effect))
herbicidal effect, S (Glysine max) (soybean (Glysine max); application amount 0.8 g/a): 0 (Growth control rates of less than 5% (substantially no effect))
herbicidal effect, S (Glysine max) (soybean (Glysine max); application amount 1.6 g/a): 1 (Growth control rates of 5 to 20%)
herbicidal effect, K (Cyperus microiria) ([1]; application amount 0.4 g/a): 5 (Growth control,rates of more than 90% (almost completely withered))
herbicidal effect, K (Cyperus microiria) ([1]; application amount 0.8 g/a): 5 (Growth control,rates of more than 90% (almost completely withered))
herbicidal effect, K (Cyperus microiria) ([1]; application amount 1.6 g/a): 5 (Growth control,rates of more than 90% (almost completely withered))
herbicidal effect, N (Echinochloa crusgalli) ([2]; application amount 0.4 g/a): 5 (Growth control,rates of more than 90% (almost completely withered))
herbicidal effect, N (Echinochloa crusgalli) ([2]; application amount 0.8 g/a): 5 (Growth control,rates of more than 90% (almost completely withered))
herbicidal effect, N (Echinochloa crusgalli) ([2]; application amount 1.6 g/a): 5 (Growth control,rates of more than 90% (almost completely withered))
herbicidal effect, D (Galinsoga ciliat) ([3]; application amount 0.4 g/a): 5 (Growth control,rates of more than 90% (almost completely withered))
herbicidal effect, D (Galinsoga ciliat) ([3]; application amount 0.8 g/a): 5 (Growth control,rates of more than 90% (almost completely withered))
herbicidal effect, D (Galinsoga ciliat) ([3]; application amount 1.6 g/a): 5 (Growth control,rates of more than 90% (almost completely withered))
herbicidal effect, T (Zea mays) (corn (Zea mays); application amount 0.4 g/a): 0 (Growth control rates of less than 5% (substantially no effect))
herbicidal effect, T (Zea mays) (corn (Zea mays); application amount 0.8 g/a): 1 (Growth control rates of 5 to 20%)
herbicidal effect, T (Zea mays) (corn (Zea mays); application amount 1.6 g/a): 4 (Growth control rates of 70 to 90%)
herbicidal effect, C (Gossypium herbaceum) ([4]; application amount 0.4 g/a): 0 (Growth control rates of less than 5% (substantially no effect))
herbicidal effect, C (Gossypium herbaceum) ([4]; application amount 0.8 g/a): 1 (Growth control rates of 5 to 20%)
herbicidal effect, C (Gossypium herbaceum) ([4]; application amount 1.6 g/a): 2 (Growth control rates of 20 to 40%)
herbicidal effect, R (Oryza sativa) (rice (Oryza sativa); application amount 0.4 g/a): 2 (Growth control rates of 20 to 40%)
herbicidal effect, R (Oryza sativa) (rice (Oryza sativa); application amount 0.8 g/a): 3 (Growth control rates of 40 to 70%)
herbicidal effect, R (Oryza sativa) (rice (Oryza sativa); application amount 1.6 g/a): 4 (Growth control rates of 70 to 90%)
herbicidal effect, M (Digitaria adscendens) ([5]; application amount 0.4 g/a): 5 (Growth control,rates of more than 90% (almost completely withered))
herbicidal effect, M (Digitaria adscendens) ([5]; application amount 0.8 g/a): 5 (Growth control,rates of more than 90% (almost completely withered))
herbicidal effect, M (Digitaria adscendens) ([5]; application amount 1.6 g/a): 5 (Growth control,rates of more than 90% (almost completely withered))
herbicidal effect, W (Triticum vulgare) ([6]; application amount 0.4 g/a): 2 (Growth control rates of 20 to 40%)
herbicidal effect, W (Triticum vulgare) ([6]; application amount 0.8 g/a): 4 (Growth control rates of 70 to 90%)
herbicidal effect, W (Triticum vulgare) ([6]; application amount 1.6 g/a): 5 (Growth control,rates of more than 90% (almost completely withered))
herbicidal effect, I (Rorippa indica) ([7]; application amount 0.4 g/a): 5 (Growth control,rates of more than 90% (almost completely withered))
herbicidal effect, I (Rorippa indica) ([7]; application amount 0.8 g/a): 5 (Growth control,rates of more than 90% (almost completely withered))
herbicidal effect, I (Rorippa indica) ([7]; application amount 1.6 g/a): 5 (Growth control,rates of more than 90% (almost completely withered))
herbicidal effect, H (Solanum nigrum L.) ([8]; application amount 0.4 g/a): 5 (Growth control,rates of more than 90% (almost completely withered))
herbicidal effect, H (Solanum nigrum L.) ([8]; application amount 0.8 g/a): 5 (Growth control,rates of more than 90% (almost completely withered))
herbicidal effect, H (Solanum nigrum L.) ([8]; application amount 1.6 g/a): 5 (Growth control,rates of more than 90% (almost completely withered))

O=C1COc2cc(F)c(N3C(=O)CC(C(F)(F)F)CC3=O)cc2N1CC1CCCCC1 [1-28]
herbicidal effect, S (Glysine max) (soybean (Glysine max); application amount 1.6 g/a): 0 (Growth control rates of less than 5% (substantially no effect))
herbicidal effect, K (Cyperus microiria) ([1]; application amount 1.6 g/a): 5 (Growth control,rates of more than 90% (almost completely withered))
herbicidal effect, N (Echinochloa crusgalli) ([2]; application amount 1.6 g/a): 5 (Growth control,rates of more than 90% (almost completely withered))
herbicidal effect, D (Galinsoga ciliat) ([3]; application amount 1.6 g/a): 5 (Growth control,rates of more than 90% (almost completely withered))
herbicidal effect, T (Zea mays) (corn (Zea mays); application amount 1.6 g/a): 0 (Growth control rates of less than 5% (substantially no effect))
herbicidal effect, C (Gossypium herbaceum) ([4]; application amount 1.6 g/a): 0 (Growth control rates of less than 5% (substantially no effect))
herbicidal effect, R (Oryza sativa) (rice (Oryza sativa); application amount 1.6 g/a): 0 (Growth control rates of less than 5% (substantially no effect))
herbicidal effect, M (Digitaria adscendens) ([5]; application amount 1.6 g/a): 5 (Growth control,rates of more than 90% (almost completely withered))
herbicidal effect, W (Triticum vulgare) ([6]; application amount 1.6 g/a): 2 (Growth control rates of 20 to 40%)
herbicidal effect, I (Rorippa indica) ([7]; application amount 1.6 g/a): 5 (Growth control,rates of more than 90% (almost completely withered))
herbicidal effect, H (Solanum nigrum L.) ([8]; application amount 1.6 g/a): 5 (Growth control,rates of more than 90% (almost completely withered))
